Source: patent publication US10442807B2, “Aryl substituted bicyclic compounds as herbicides” (FMC Corporation, priority 2015, dated 2019)

Assays:
Assay type in all cases: in vivo
[1] = test system: barnyardgrass (Echinochloa crus-galli); assay: Test A preemergence, directed soil spray, visual injury rating; conditions: approx. 10 d, 0 = no effect, 100 = complete control
From the text: (§1) Seeds of plant species selected from barnyardgrass (Echinochloa crus-galli), kochia (Kochia scoparia), ragweed (common ragweed, Ambrosia elation), ryegrass, Italian (Italian ryegrass, Lolium multiflorum), foxtail, giant (giant foxtail, Setaria faberii), and pigweed (Amaranthus retroflexus), were planted into a blend of loam soil and sand and treated preemergence with a directed soil spray using test chemicals formulated in a non-phytotoxic solvent mixture which included a surfactant. At the same time, plants selected from these weed species and also blackgrass (Alopecurus myosuroides), galium (catchweed bedstraw, Galium aparine), wheat (Triticum aestivum), and corn (Zea mays) were planted in pots containing the same blend of loam soil and sand and treated with postemergence applications of test chemicals formulated in the same manner. Plants ranged in height from 2 to 10 cm and were in the one- to two-leaf stage for the postemergence treatment. Treated plants and untreated controls were maintained in a greenhouse for approximately 10 d, after which time all treated plants were compared to untreated controls and visually evaluated for injury. Plant response ratings, summarized in Table A, are based on a 0 to 100 scale where 0 is no effect and 100 is complete control. A dash (-) response means no test result.

[2] = test system: foxtail, giant (giant foxtail, Setaria faberii); assay: as above; conditions: approx. 10 d, 0 = no effect, 100 = complete control
From the text: as §1

kochia (Kochia scoparia) [3] = assay: as above; conditions: approx. 10 d, 0 = no effect, 100 = complete control
From the text: as §1

[4] = test system: pigweed (Amaranthus retroflexus); assay: as above; conditions: approx. 10 d, 0 = no effect, 100 = complete control
From the text: as §1

[5] = test system: ragweed (common ragweed, Ambrosia elation); assay: as above; conditions: approx. 10 d, 0 = no effect, 100 = complete control
From the text: as §1

[6] = test system: ryegrass, Italian (Italian ryegrass, Lolium multiflorum); assay: as above; conditions: approx. 10 d, 0 = no effect, 100 = complete control
From the text: as §1

[7] = test system: barnyardgrass (Echinochloa crus-galli); assay: Test A postemergence application, visual injury rating; conditions: approx. 10 d, 0 = no effect, 100 = complete control
From the text: as §1

[8] = test system: blackgrass (Alopecurus myosuroides); assay: as above; conditions: approx. 10 d, 0 = no effect, 100 = complete control
From the text: as §1

corn (Zea mays) = assay: as above; conditions: approx. 10 d, 0 = no effect, 100 = complete control
From the text: as §1

[9] = test system: foxtail, giant (giant foxtail, Setaria faberii); assay: as above; conditions: approx. 10 d, 0 = no effect, 100 = complete control
From the text: as §1

[10] = test system: galium (catchweed bedstraw, Galium aparine); assay: as above; conditions: approx. 10 d, 0 = no effect, 100 = complete control
From the text: as §1

kochia (Kochia scoparia) [11] = assay: as above; conditions: approx. 10 d, 0 = no effect, 100 = complete control
From the text: as §1

[12] = test system: pigweed (Amaranthus retroflexus); assay: as above; conditions: approx. 10 d, 0 = no effect, 100 = complete control
From the text: as §1

[13] = test system: ragweed (common ragweed, Ambrosia elation); assay: as above; conditions: approx. 10 d, 0 = no effect, 100 = complete control
From the text: as §1

[14] = test system: ryegrass, Italian (Italian ryegrass, Lolium multiflorum); assay: as above; conditions: approx. 10 d, 0 = no effect, 100 = complete control
From the text: as §1

[15] = test system: wheat (Triticum aestivum); assay: as above; conditions: approx. 10 d, 0 = no effect, 100 = complete control
From the text: as §1

[16] = test system: barnyardgrass (Echinochloa crus-galli); assay: Test B flooded paddy test, visual plant response rating; conditions: 500 g ai/ha; applied to paddy water at 2-leaf stage; rated after 13 to 15 days; scale 0 to 100, 0 is no effect, 100 is complete control
From the text: (§2) At time of treatment, test pots were flooded to 3 cm above the soil surface, treated by application of test compounds directly to the paddy water, and then maintained at that water depth for the duration of the test. Treated plants and controls were maintained in a greenhouse for 13 to 15 days, after which time all species were compared to controls and visually evaluated. Plant response ratings, summarized in Table B, are based on a scale of 0 to 100 where 0 is no effect and 100 is complete control. A dash (-) response means no test result.

[17] = test system: ducksalad (Heteranthera limosa); assay: as above; conditions: 500 g ai/ha; applied to paddy water at 2-leaf stage; rated after 13 to 15 days; scale 0 to 100, 0 is no effect, 100 is complete control
From the text: as §2

rice (Oryza sativa) = assay: as above; conditions: 500 g ai/ha; applied to paddy water at 2-leaf stage; rated after 13 to 15 days; scale 0 to 100, 0 is no effect, 100 is complete control
From the text: as §2

[18] = test system: sedge, umbrella (small-flower umbrella sedge, Cyperus difformis); assay: as above; conditions: 500 g ai/ha; applied to paddy water at 2-leaf stage; rated after 13 to 15 days; scale 0 to 100, 0 is no effect, 100 is complete control
From the text: as §2

Structure (SMILES) | Barnyardgrass plant response rating (0 to 100 scale) ([1]; 125 g ai/ha) | Barnyardgrass plant response rating (0 to 100 scale) ([1]; 500 g ai/ha) | Foxtail, Giant plant response rating (0 to 100 scale) ([2]; 125 g ai/ha) | Foxtail, Giant plant response rating (0 to 100 scale) ([2]; 500 g ai/ha) | Kochia plant response rating (0 to 100 scale) (kochia (Kochia scoparia) [3]; 125 g ai/ha) | Kochia plant response rating (0 to 100 scale) (kochia (Kochia scoparia) [3]; 500 g ai/ha) | Pigweed plant response rating (0 to 100 scale) ([4]; 125 g ai/ha) | Pigweed plant response rating (0 to 100 scale) ([4]; 500 g ai/ha) | Ragweed plant response rating (0 to 100 scale) ([5]; 125 g ai/ha) | Ragweed plant response rating (0 to 100 scale) ([5]; 500 g ai/ha) | Ryegrass, Italian plant response rating (0 to 100 scale) ([6]; 125 g ai/ha) | Ryegrass, Italian plant response rating (0 to 100 scale) ([6]; 500 g ai/ha) | Barnyardgrass plant response rating (0 to 100 scale) ([7]; 125 g ai/ha) | Barnyardgrass plant response rating (0 to 100 scale) ([7]; 500 g ai/ha) | Blackgrass plant response rating (0 to 100 scale) ([8]; 125 g ai/ha) | Blackgrass plant response rating (0 to 100 scale) ([8]; 500 g ai/ha) | Corn plant response rating (0 to 100 scale) (corn (Zea mays); 125 g ai/ha) | Corn plant response rating (0 to 100 scale) (corn (Zea mays); 500 g ai/ha) | Foxtail, Giant plant response rating (0 to 100 scale) ([9]; 125 g ai/ha) | Foxtail, Giant plant response rating (0 to 100 scale) ([9]; 500 g ai/ha) | also measured
O=C(Nc1ccccc1F)C1C2=NCC(=O)N2CC1c1cccc(C(F)(F)F)c1 (centres unmarked) [Compound 3, N-(2-fluorophenyl)-2,3,6,7-tetrahydro-3-oxo-6-[3-(trifluoromethyl)phenyl]-5H-pyrrolo[1,2-a]imidazole-7-carboxamide] | 0 | 60 | 0 | 80 | 0 | 0 | 0 | 0 | 0 | 0 | 0 | 0 | 0 | 30 | 0 | 0 | 0 | 0 | 20 | 50 | Galium plant response rating (0 to 100 scale) ([10]; 125 g ai/ha): 0; Galium plant response rating (0 to 100 scale) ([10]; 500 g ai/ha): 0; Kochia plant response rating (0 to 100 scale) (kochia (Kochia scoparia) [11]; 125 g ai/ha): 0; Kochia plant response rating (0 to 100 scale) (kochia (Kochia scoparia) [11]; 500 g ai/ha): 0; Pigweed plant response rating (0 to 100 scale) ([12]; 125 g ai/ha): 0; Pigweed plant response rating (0 to 100 scale) ([12]; 500 g ai/ha): 0; Ragweed plant response rating (0 to 100 scale) ([13]; 125 g ai/ha): 0; Ragweed plant response rating (0 to 100 scale) ([13]; 500 g ai/ha): 0; Ryegrass, Italian plant response rating (0 to 100 scale) ([14]; 125 g ai/ha): 0; Ryegrass, Italian plant response rating (0 to 100 scale) ([14]; 500 g ai/ha): 10; Wheat plant response rating (0 to 100 scale) ([15]; 125 g ai/ha): 0; Wheat plant response rating (0 to 100 scale) ([15]; 500 g ai/ha): 0
O=C(Nc1ccccc1F)C1c2nccn2CC1c1cccc(C(F)(F)F)c1 (centres unmarked) [Compound 4] | 20 | 90 | 60 | 90 | 0 | 0 | 0 | 0 | 0 | 0 | 0 | 0 | 20 | 60 | 20 | 40 | 0 | 0 | 20 | 70 | Galium plant response rating (0 to 100 scale) ([10]; 125 g ai/ha): 0; Galium plant response rating (0 to 100 scale) ([10]; 500 g ai/ha): 0; Kochia plant response rating (0 to 100 scale) (kochia (Kochia scoparia) [11]; 125 g ai/ha): 0; Kochia plant response rating (0 to 100 scale) (kochia (Kochia scoparia) [11]; 500 g ai/ha): 0; Pigweed plant response rating (0 to 100 scale) ([12]; 125 g ai/ha): 0; Pigweed plant response rating (0 to 100 scale) ([12]; 500 g ai/ha): 0; Ragweed plant response rating (0 to 100 scale) ([13]; 125 g ai/ha): 0; Ragweed plant response rating (0 to 100 scale) ([13]; 500 g ai/ha): 0; Ryegrass, Italian plant response rating (0 to 100 scale) ([14]; 125 g ai/ha): 0; Ryegrass, Italian plant response rating (0 to 100 scale) ([14]; 500 g ai/ha): 0; Wheat plant response rating (0 to 100 scale) ([15]; 125 g ai/ha): 0; Wheat plant response rating (0 to 100 scale) ([15]; 500 g ai/ha): 20; Plant response rating, Flood, Barnyardgrass [16]: 0; Plant response rating, Flood, Ducksalad [17]: 0; Plant response rating, Flood, Rice (rice (Oryza sativa)): 0; Plant response rating, Flood, Sedge, Umbrella [18]: 0
